{"source": "patent US4317768A", "about": "“Dihydropyridine derivatives as stabilizers for vinyl chloride polymers” (priority 1977, dated 1982)", "key": {"[1]": {"assay": "Polarographic study of the oxidation potential", "type": "physicochemical", "conditions": "acetonitrile, 0.1 M lithium perchlorate, vitrous carbon electrode, calomel reference", "from_the_text": "By a polarographic study of their oxidation potential, compared to well-known antioxidants such as 2,6-diterbutyl-4-methyl-phenol, 2-terbutyl-4-methoxy-phenol, 4-methoxy-phenol and hydroquinone.\nReference electrode: Calomel electrode containing a saturated solution of anhydrous lithium perchlorate as bridge liquid.\nWorking electrode: Vitrous carbon rotating electrode (2,500 r.p.m.)\nCounter-electrode: Platinum electrode\nAcetonitrile containing less than 0.1% of water and presenting no polarographic waves between -2.5 V and +2.5 V.\nAnhydrous lithium perchlorate containing less than 1% of water.\nA 0.1 M solution of lithium perchlorate in acetonitrile, treated and preserved on a 4 A molecular sieve.\nAmplitude of exploration: 0 to 2 V\nSpeed of exploration: 10 mV/second\nSensitivity: 1.25 μA to 50 μA\nMean concentration: about 0.3×10^-3 mol/liter\nBetween each measurement, the vitrous carbon electrode and the platinum electrode were carefully cleaned with Joseph paper."}, "[2]": {"assay": "Comparison with 1,4-butanediol-β-aminocrotonate and methyl-β-aminocrotonate, rigid co-polymer, 185° C.", "conditions": "0.5 part", "method": "(a) Comparison with 1,4-butanediol-β-aminocrotonate and with methyl-β-aminocrotonate.\nThe following rigid co-polymer was prepared:\nThe sheets were heated in a ventilated oven at 185° C. and the following results were obtained: […]"}, "[3]": {"assay": "Photostabilizing power, PVC plates exposed to the sun, GARDNER scale", "method": "(§1) The photostabilizing power of the compounds of the invention was studied by exposing to the sun polyvinyl chloride plates which had been stabilized either by a dihydropyridine of the invention or by 2-phenyl-indole, or again by 2-(3'-methoxy-4'-hydroxy)-indole. This last product is an extremely valuable thermostabilizer for thermoplastic resins and is described in British Pat. No. 1,489,685.\n(§2) The resin given hereunder was prepared by mixing on cylinders at 160° C.:\n(§3) The plates of stabilized polyvinyl chloride, together with a plate which had not been stabilized, were stood in the sun under the same conditions and at the same time. Their colour was measured after 6 hours and 12 hours of exposure.\n(§4) The coloration of the plates was determined according to two methods:\nOn the plates themselves, following the GARDNER scale, as in the section on thermostability,\nThe sign + means that the coloration lies between the lower unit and the upper half-unit. Thus, 3+ means that the coloration lies between 3 and 3.5. Similarly, the sign - means that the coloration lies between the lower half-unit and the upper unit."}, "[4]": {"assay": "Photostabilizing power, tetrahydrofuran solution of plates exposed to the sun, French Pharmacopeia", "method": "as §1, §2, §3, §4\nOn a solution of these plates in tetrahydrofuran, the coloration of th solution being measured according to the French Pharmacopeia (IXth edition, II-338)."}}}
{"smiles": "COc1ccc(O)c(C(C)(C)C)c1", "note": "[2-Terbutyl-4-methoxy-phenol]", "values": [{"measurement": "Oxidation potential", "setting": "[1]", "result": "0.81 ± 0.01", "unit": "volts"}]}
{"smiles": "COc1ccc(O)cc1", "note": "[4-Methoxy-phenol]", "values": [{"measurement": "Oxidation potential", "setting": "[1]", "result": "0.89 ± 0.01", "unit": "volts"}]}
{"smiles": "Oc1ccc(O)cc1", "note": "[Hydroquinone]", "values": [{"measurement": "Oxidation potential", "setting": "[1]", "result": "0.83 ± 0.01", "unit": "volts"}]}
{"smiles": "COC(=O)/C=C(/C)N", "note": "[Methyl-β-aminocrotonate, methyl-β-aminocrotonate, reference compound]", "values": [{"measurement": "coloration, GARDNER scale", "setting": "[2]; 0 min", "result": 1}, {"measurement": "coloration, GARDNER scale", "setting": "[2]; 2 min", "result": 1}, {"measurement": "coloration, GARDNER scale", "setting": "[2]; 4 min", "result": 5}, {"measurement": "coloration, GARDNER scale", "setting": "[2]; 6 min", "result": 12}, {"measurement": "coloration, GARDNER scale", "setting": "[2]; 8 min", "result": 14}, {"measurement": "coloration, GARDNER scale", "setting": "[2]; 10 min", "result": 17}, {"measurement": "coloration, GARDNER scale", "setting": "[2]; 12 min", "result": 18}]}
{"smiles": "COc1cc(-c2cc3ccccc3[nH]2)ccc1O", "note": "[2-(3'-Methoxy-4'-hydroxy-phenyl)-indole, reference compound]", "values": [{"measurement": "Coloration of the plates GARDNER", "setting": "[3]; exposure to sun 0", "result": 1}, {"measurement": "Coloration of the plates GARDNER", "setting": "[3]; exposure to sun 6h", "result": 4}, {"measurement": "Coloration of the plates GARDNER", "setting": "[3]; exposure to sun 12h", "result": 8}, {"measurement": "Coloration of the plates FRENCH PHARMACOPEIA", "setting": "[4]; exposure to sun 6h", "result": "B4 to JB4"}, {"measurement": "Coloration of the plates FRENCH PHARMACOPEIA", "setting": "[4]; exposure to sun 12h", "result": "B3 to JB3"}]}
